Source: the supplement of paper PMC12137928
Where a name gives a salt, the structure may show the parent alone.

System: HCT116
Settings: 72 h
Procedure, shortened: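 After seeding at 250 cells per well in 1536-well plates, HCT116 cells were given 5 h to attach. CellTiter-Glo luminescence, scaled to 0% for vehicle and -100% for positive control, was pattern-corrected. Fitting with a four-parameter Hill model produced IC50 and maximal efficacy.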

Row | Structure (SMILES) | IC50 cell viability (ICRF193 0 nM) [µM] | IC50 cell viability (ICRF193 200 nM) [µM]
1 | CC(C)(C)NCC(O)COc1ccccc1OCC1CCCO1 (centres undefined) [Bufetolol] | > 45.8 | > 45.8
2 | CC(=O)O[C@H]1C[C@@H]2CC[C@@H]3[C@H](CC[C@@]4(C)[C@H]3C[C@H]([N+]3(C)CCCCC3)[C@@H]4OC(C)=O)[C@@]2(C)C[C@@H]1[N+]1(C)CCCCC1 [Pancuronium bromide] | > 45.8 | > 45.8
3 | CCC1(c2ccc(N)cc2)CCC(=O)NC1=O (centres undefined) [Aminoglutethimide] | > 45.8 | > 45.8
4 | C[N+](C)(C)CC(O)CC(=O)[O-] (racemic) [DL-Carnitine HCl] | > 45.8 | > 45.8
5 | NC(CO)C(=O)NNCc1ccc(O)c(O)c1O (centres undefined) [Benserazide] | > 45.8 | > 45.8
6 | CC[C@H]1OC(=O)[C@H](C)[C@@H](O[C@H]2C[C@@](C)(OC)[C@@H](O)[C@H](C)O2)[C@H](C)[C@@H](O[C@@H]2O[C@H](C)C[C@H](N(C)C)[C@H]2O)[C@](C)(O)C[C@@H](C)[C@@H]2N[C@@H](COCCOC)O[C@H]([C@H]2C)[C@]1(C)O [Dirithromycin] | > 45.8 | > 45.8
7 | CC1(C)S[C@@H]2[C@H](NC(=O)[C@H](N)c3ccc(O)cc3)C(=O)N2[C@H]1C(=O)O [Amoxicillin sodium] | > 45.8 | > 45.8
8 | C[C@H](CCC(=O)O)[C@H]1CC[C@H]2[C@@H]3C(=O)C[C@@H]4CC(=O)CC[C@]4(C)[C@H]3CC(=O)[C@]12C [Dehydrocholic acid] | > 45.8 | > 45.8
9 | C=CC=CCC1=C(C)C(OC(=O)C2C(C=C(C)C)C2(C)C)CC1=O (centres undefined) [Pyrethrin 1] | > 45.8 | > 45.8
10 | C[C@H]1O[C@H](O[C@H]2[C@H](O)[C@@H](O)[C@@H](O[C@H]3[C@H](O)[C@@H](O)C(O)O[C@@H]3CO)O[C@@H]2CO)[C@H](O)[C@@H](O)[C@@H]1N[C@H]1C=C(CO)[C@@H](O)[C@H](O)[C@H]1O (some centres undefined) [Acarbose] | > 45.8 | > 45.8
11 | O=C(CC1NCCCC1O)Cn1cnc2cc(Br)c(Cl)cc2c1=O (centres undefined) [Halofuginone hydrochloride] | > 45.8 | > 45.8
12 | CC(=O)O[C@H]1CC[C@@]2(C)C(=CC[C@@H]3[C@@H]2CC[C@]2(C)C(c4cccnc4)=CC[C@@H]32)C1 [Abiraterone acetate] | > 45.8 | > 45.8
13 | CCCCN(CCN(CCCC)C(=O)N1CCOCC1)C(=O)N1CCOCC1 [Dimorpholamine] | > 45.8 | > 45.8
14 | CC(C)[C@H]1C(=O)N[C@@H](CCCNC(=N)N)C(=O)NCC(=O)N[C@@H](CC(=O)O)C(=O)N[C@H](Cc2ccccc2)C(=O)N1C [Cilengitide] | > 45.8 | > 45.8
15 | COc1cc2c(cc1OC)C(=O)C(CC1CCN(Cc3ccccc3)CC1)C2 (centres undefined) [Donepezil hydrochloride] | > 45.8 | > 45.8
16 | Cc1onc(-c2c(Cl)cccc2Cl)c1C(=O)N[C@@H]1C(=O)N2[C@@H]1SC(C)(C)[C@@H]2C(=O)O [Dicloxacillin sodium salt monohydrate] | > 45.8 | > 45.8
17 | O=C(O)Cc1ccccc1 [Phenylacetic acid] | > 45.8 | > 45.8
18 | COc1cc(N)cn[n+]1-c1ccccc1 [Amezinium methylsulfate] | > 45.8 | > 45.8
19 | O=[N+]([O-])C(Br)(CO)CO [2-Bromo-2-nitro-1,3-propanediol] | > 45.8 | > 45.8
20 | O=[N+]([O-])O[C@@H]1CO[C@H]2[C@@H]1OC[C@@H]2O [Isosorbide mononitrate] | > 45.8 | > 45.8
21 | C=CC[C@]1(O)CC[C@H]2[C@@H]3CCC4=CC(=O)CCC4=C3C=C[C@@]21C [Altrenogest] | > 45.8 | > 45.8
22 | C[N+](C)(C)CCO.[Cl-] [Choline Chloride] | > 45.8 | > 45.8
23 | CCCCOc1ccc(C[N+]2(C)[C@@H]3CC[C@H]2C[C@H](OC(=O)C(CO)c2ccccc2)C3)cc1 (some centres undefined) [Butropium Bromide] | > 45.8 | > 45.8
24 | NCC[C@H](O)C(=O)N[C@@H]1C[C@H](N)[C@@H](O[C@H]2O[C@H](CN)[C@@H](O)[C@H](O)[C@H]2O)[C@H](O)[C@H]1O[C@H]1O[C@H](CO)[C@@H](O)[C@H](N)[C@H]1O [Amikacin] | > 45.8 | > 45.8
25 | COc1cc(CNC(=O)CCCC/C=C/C(C)C)ccc1O [(E)-Capsaicin] | > 45.8 | > 45.8
26 | CCN1CCN(C(=O)N[C@@H](C(=O)N[C@]2(OC)C(=O)N3C(C(=O)O)=C(CSc4nnnn4C)CS[C@@H]32)[C@H](C)O)C(=O)C1=O [Cefbuperazone] | > 45.8 | > 45.8
27 | O=C1NC(=O)C(c2ccccc2)(c2ccccc2)N1 [5,5-Diphenylhydantoin] | > 45.8 | > 45.8

Continued, values first:

Row | IC50 cell viability (ICRF193 0 nM) [µM] | IC50 cell viability (ICRF193 200 nM) [µM] | Structure (SMILES)
28 | > 45.8 | > 45.8 | N=C(N)NCCC[C@H](N)C(=O)O [L-Arginine]
29 | > 45.8 | > 45.8 | Cc1nc(C2CCCCC2)c(-c2ccc(S(N)(=O)=O)c(F)c2)o1 [Tilmacoxib]
30 | > 45.8 | > 45.8 | S=C1SCN(Cc2ccccc2)CN1Cc1ccccc1 [Sulbentine]
31 | > 45.8 | > 45.8 | COc1cc2nccc(Oc3ccc(NC(=O)NC4CC4)c(Cl)c3)c2cc1C(N)=O [Lenvatinib]
32 | > 45.8 | > 45.8 | O=C(O)c1ccccc1C(c1ccc(O)cc1)c1ccc(O)cc1 [Phenolphthalin]
33 | > 45.8 | > 45.8 | Cc1ccc2c(n1)Oc1ccc(C(C)C(=O)OCC(=O)N(C)C)cc1C2 (centres undefined) [Mepranoprofen arbamel]
34 | > 45.8 | > 45.8 | CC[C@@H]([C@H](C)O)n1ncn(-c2ccc(N3CCN(c4ccc(OC[C@@H]5CO[C@@](Cn6cncn6)(c6ccc(F)cc6F)C5)cc4)CC3)cc2)c1=O [Posaconazole]
35 | > 45.8 | > 45.8 | O=C(O)c1cc2ccccc2c(Cc2c([O-])c(C(=O)O)cc3ccccc23)c1[O-].[Na+].[Na+] [Pamoic acid disodium salt]
36 | > 45.8 | > 45.8 | Cc1cc(C)cc(OCC2CNC(=O)O2)c1 (centres undefined) [Metaxalone]
37 | > 45.8 | > 45.8 | COc1ccc2cc([C@H](C)C(=O)O)ccc2c1 [Naproxen sodium]
38 | > 45.8 | > 45.8 | CN(C)CCc1c[nH]c2ccc(Cn3cncn3)cc12 [Rizatriptan Benzoate]
39 | > 45.8 | > 45.8 | CC[C@H]1OC(=O)[C@H](C)C(=O)[C@H](C)[C@@H](O[C@@H]2O[C@H](C)C[C@H](N(C)C)[C@H]2O)[C@](C)(OC)C[C@@H](C)C(=O)[C@H](C)[C@H]2N(CCCCn3cnc(-c4cccnc4)c3)C(=O)O[C@]12C [TELITHROMYCIN]
40 | > 45.8 | > 45.8 | CC(N)C12CC3CC(CC(C3)C1)C2 (centres undefined) [Rimantadine]
41 | > 45.8 | > 45.8 | N#Cc1ccc2[nH]cc(CCCCN3CCN(c4ccc5oc(C(N)=O)cc5c4)CC3)c2c1 [Vilazodone Hydrochloride]
42 | > 45.8 | > 45.8 | COC(=O)[C@@H]1CC2=CC(=O)CC[C@]2(C)[C@@]23O[C@@H]2C[C@@]2(C)[C@@H](CC[C@@]24CCC(=O)O4)[C@H]13 [Eplerenone]
43 | > 45.8 | > 45.8 | CN1C(=O)C[C@@H](C(=O)N[C@@H](Cc2c[nH]cn2)C(=O)N2CCC[C@H]2C(N)=O)NC1=O [Taltirelin]
44 | > 45.8 | > 45.8 | O=C(O)/C=C/c1ccc(Cn2ccnc2)cc1 [Ozagrel hydrochloride]
45 | > 45.8 | > 45.8 | N=C(N)c1ccc(/C=C/c2ccc(C(=N)N)cc2O)cc1 [Hydroxystilbamidine bis(methanesulfonate)]
46 | > 45.8 | > 45.8 | COc1ccc2c3c1O[C@H]1C[C@@H](O)C=C[C@@]31CCN(C)C2 [Galanthamine]
47 | > 45.8 | > 45.8 | CC(=O)OCC(=O)[C@@]12OC(C)(C)O[C@@H]1C[C@H]1[C@@H]3C[C@H](F)C4=CC(=O)C=C[C@]4(C)[C@@]3(F)[C@@H](O)C[C@@]12C [Fluocinonide]
48 | > 45.8 | > 45.8 | C[C@@H](O)[C@H]1C(=O)N2C(C(=O)O)=C(S[C@@H]3CN[C@H](C(=O)N(C)C)C3)[C@H](C)[C@H]12 [Meropenem]
49 | > 45.8 | > 45.8 | O=C(O)[C@@H](O)[C@H](O)[C@H](O)[C@@H](O)C(=O)O [Mucic acid]
50 | > 45.8 | > 45.8 | NNCCc1ccccc1 [Phenelzine]
51 | > 45.8 | > 45.8 | CCCN1CCCC[C@H]1C(=O)Nc1c(C)cccc1C [Ropivacaine hydrochloride]
52 | > 45.8 | > 45.8 | N=C(N/N=C/c1ccc(Cl)cc1)N/N=C/c1ccc(Cl)cc1 [Robenidine]
53 | > 45.8 | > 45.8 | Cc1cc(C)nc(NS(=O)(=O)c2ccc(N)cc2)n1 [Sulfamethazine]
54 | > 45.8 | > 45.8 | CN(c1nccc(=O)[nH]1)C1CCN(c2nc3ccccc3n2Cc2ccc(F)cc2)CC1 [Mizolastine]
55 | > 45.8 | > 45.8 | N.N.O=C([O-])C[O-].[Pt+2] [Nedaplatin]
56 | > 45.8 | > 45.8 | CC(C)(S)[C@H](N)C(=O)O [L-Penicillamine]
57 | > 45.8 | > 45.8 | CS(=O)(=O)c1ccc([C@@H](O)[C@@H](CF)NC(=O)C(Cl)Cl)cc1 [Florfenicol]
